Counter-ions that a name gives are not always drawn. Like-named read-outs stand apart in the source and are kept apart here.

The test concerns serum lipoproteins. In words: Effect on serum lipoproteins of normolipemic male rats in a subchronic experiment. The class given is in vivo. Conditions: Rattus norvegicus, po, by stomach tube, 7 administrations; for change in vivo at 30 mg/kg: 30 mg/kg/day; for change in vivo at 100 mg/kg: 100 mg/kg/day; for change in vivo at 10 mg/kg: 10 mg/kg/day; for change in vivo at 3 mg/kg: 3 mg/kg/day. As to the method:
3. In vivo, the increased LDL receptor activity in experimental animals is reflected by reduction in the lipoprotein fractions which can be metabolized by the LDL receptor (apoB/E receptor), i.e. a reduction in the LDL and VLDL levels is observed. The following test was carried out:
Effect on serum lipoproteins of normolipemic male rats in a subchronic experiment
Groups of in each case 10 male rats of the HOE: WISKf (SPF 71) strain with an initial weight above 180 g received once a day (in the morning) the test product or the comparison product in 1% aqueous ®Tylose MH 300 solution by stomach tube (0.5 ml/100 g of body weight); the control group in each case received only the vehicle. The last (7th) administration took place 24 hours before removal of blood and sacrifice. There was free access to food and water during the test. The food was withdrawn 24 hours before the removal of blood.
The serum from all 10 rats in a group was pooled for the analysis of the serum lipoproteins. The serum lipoproteins were separated with a preparative ultracentrifuge (KONTRON TGA 65, Rotor BECKMAN 50.4 Ti).
The following conditions specified by Koga, S., Horwitz, D. L., and Scanu, A. M., Journal of Lipid Research 10, 577 (1969) and Havel, R. J., Eder, H. A., and Bragdon, H. H., J. Clin. Invest. 34, 1345 (1955) were used to separate VLDL and LDL: 1. VLDL: Density<1.006, 40,000 rpm for 16 hours 2. LDL: Density 1.006-1.04, 40,000 rmp for 16 hours
Test kits from BOEHRINGER/Mannheim were used for the enzymatic determination of cholesterol and triglycerides in the separated lipoprotein fractions (cf. Siedel, J., Schlumberger, H., Klose, S., Ziegenhorn, J. and Wahlefeld, A. W., J. Clin. Chem. Clin. Biochem. 19, 838 (1981) and Wahlefeld, A. W., in: H. O. Bergmeier: Methoden der enzymatischen Analyse (Methods of Enzymatic Analysis), 2nd edition, Volume II, Verlag Chemie 1974, page 1878). The proteins were determined by the method of Lowry (Lowry, O. H., Roseborough, N. H., Farr, A. L. and Randell, R. J., J. Biol. Chem. 193, 265 (1951)).
Clofibrate was used as comparison product.

Setting [1] is: read-out: Serum LDL cholesterol, % change from control at end of treatment.
[2] abbreviates: read-out: Serum LDL protein, % change from control at end of treatment.
Where [3] appears, read: read-out: Serum VLDL cholesterol, % change from control at end of treatment.
Where [4] appears, read: read-out: Serum VLDL protein, % change from control at end of treatment.
[5] abbreviates: read-out: Serum VLDL triglycerides, % change from control at end of treatment.

As for `CC(C)CN(C(=O)c1cnc(N2CC(C)(C)NC2=O)nc1N)c1cccc(C(F)(F)F)c1` [Example 36], the change in vivo at 30 mg/kg reads like this: under setting [1], -38%; under setting [2], -5%; under setting [3], -65%; under setting [4], -33%; under setting [5], 42%.

With `CCOC(=O)C(C)(C)Oc1ccc(Cl)cc1` [Clofibrate, reference compound], the change in vivo at 100 mg/kg under setting [1] is -31%; the change in vivo at 100 mg/kg under setting [2] was -3%; the change in vivo at 100 mg/kg under setting [3] is -51%; the change in vivo at 100 mg/kg under setting [4] is -30%; the change in vivo at 100 mg/kg under setting [5] is -34%.

Turning to `CC1(C)CN(c2ncc(C(=O)N(CC3CC3)c3cc(C(F)(F)F)ccc3F)c(N)n2)C(=O)N1` [Example 41], the change in vivo at 10 mg/kg reads like this: under setting [1], -73%; under setting [2], -48%; under setting [3], -100%; under setting [4], -52%; under setting [5], -68%. For the same compound, the change in vivo at 30 mg/kg runs as follows: under setting [1], -66%; under setting [2], -36%; under setting [3], -100%; under setting [4], -45%; under setting [5], -80%.

Consider `CN(C(=O)c1cnc(N2CC(C)(C)NC2=O)nc1N)c1ccc(Br)c(C(F)(F)F)c1` [Example 30], for which the change in vivo at 10 mg/kg is, setting by setting: under setting [1], -25%; under setting [2], -19%; under setting [3], -29%; under setting [4], -36%; under setting [5], 7%.

`CCCCN(C(=O)c1cnc(N2CCNC2=O)nc1N)c1cccc(C(F)(F)F)c1` [Example 55, 4-amino-2-(2-oxo-1-imidazolidinyl)pyrimidine-5-carboxylic acid N-butyl-N-(3-trifluoromethylphenyl)amide hydrochloride]: the change in vivo at 30 mg/kg is -29% under setting [1]; -9% under setting [2]; -14% under setting [3]; -18% under setting [4]; -20% under setting [5].

Take `CCCCN(C(=O)c1cnc(N2CC(C)(C)NC2=O)nc1N)c1cccc(C(F)(F)F)c1` [Example 6, 4-amino-2-(4,4-dimethyl-2-oxo-1-imidazolidinyl)pyrimidine-5-carboxylic acid N-butyl-N-(3-trifluromethylphenyl)amide hydrochloride]: the change in vivo at 3 mg/kg by setting is: under setting [1], -24%; under setting [2], -3%; under setting [3], -35%; under setting [4], -12%. Further, the change in vivo at 10 mg/kg by setting is: under setting [1], -20%; under setting [2], -62%; under setting [3], -35%; under setting [4], -15%. For the same compound, the change in vivo at 30 mg/kg is, setting by setting: under setting [1], -62%; under setting [2], -36%; under setting [3], 41%; under setting [4], -41%; under setting [5], -69%.

As for `CN(C(=O)c1cnc(N2CC(C)(C)NC2=O)nc1N)c1cc(C(F)(F)F)ccc1Cl` [Example 29], the change in vivo at 30 mg/kg was -51% under setting [1]; -27% under setting [2]; -80% under setting [3]; 40% under setting [4]; -70% under setting [5].

For the origin of these results see patent publication US5571816A, “Pyrimidines” (Hoechst Aktiengesellschaft, priority 1992, dated 1996).
